{"source": "patent US11820762B2", "about": "“Compounds as potential therapeutic agents targeting various neurodegenerative diseases” (The Hong Kong University of Science and Technology, priority 2020, dated 2023)", "key": {"[1]": {"system": "RNA (G4C2)2 (SEQ ID NO: 8) G4", "experiment": "1D 1H-NMR titration of RNA (G4C2)2 G4", "assay_type": "binding", "settings": "ratios 1:3, 1:5, 1:10", "experimental": "(§1) Single […] were purchased from Integrated DNA Technologies (IDT) and Takara. Single-strand DNA/RNA sample at 100 μM was then annealed by heating up to 95° C. for 15 mins, and slowly cooled to room temperature in the annealing buffer (70 mM KCl, 20 mM potassium phosphate (pH 7.0)) for overnight. The final NMR samples contained 0.1 mM DNA or RNA in 70 mM KCl and 20 mM potassium phosphate buffer (pH 7.0).\nThe 1D ^1H-NMR spectra were performed at 25° C. All compounds were dissolved in isotope-labeled d6-DMSO (Sigma-Aldrich) at about 50 mM concentration, working as stock solutions. To avoid chemical shift changes of DNA/RNA G4 resulted from d6-DMSO addition, […] d6-DMSO was added into 500 μL of 0.1 mM DNA/RNA G4 solution in the NMR buffer (20 mM potassium phosphate buffer and 70 mM KCl, pH 7.0, 10% D2O) and then 1D ^1H-NMR spectrum was recorded as a reference. During NMR titration experiments of adding each compound into the DNA/RNA G4 solution, the maximal volume of 10 μL of each compound in d6-DMSO solution was regarded as a final data point. […]"}, "[2]": {"system": "human telomeric variant htel21_T18 G4", "experiment": "1D 1H-NMR titration of human telomeric variant htel21_T18 G4", "assay_type": "binding", "settings": "cA at 1:10", "experimental": "as §1\n(§2) The 1D ^1H-NMR spectra were performed at 25° C. All compounds were dissolved in isotope-labeled d6-DMSO (Sigma-Aldrich) at about 50 mM concentration, working as stock solutions. To avoid chemical shift changes of DNA/RNA G4 resulted from d6-DMSO addition, […] d6-DMSO was added into 500 μL of 0.1 mM DNA/RNA G4 solution in the NMR buffer (20 mM potassium phosphate buffer and 70 mM KCl, pH 7.0, 10% D2O) and then 1D ^1H-NMR spectrum was recorded as a reference. During NMR titration experiments of adding each compound into the DNA/RNA G4 solution, the maximal volume of 10 μL of each compound in d6-DMSO solution was regarded as a final data point.\n(§3) In addition to the four-repeat G4C2 DNA G4, there are parallel and hybrid G4 conformations formed simultaneously by the two-repeat G4C2 DNA^38,39. […]"}, "[3]": {"system": "DNA (G4C2)2 (SEQ ID NO: 4) G4", "experiment": "1D 1H-NMR titration of DNA (G4C2)2 G4", "assay_type": "binding", "settings": "cA at 1:1, 1:5, 1:10", "experimental": "as §1, §2, §3"}, "[4]": {"system": "human telomeric htel23 G4", "experiment": "1D 1H-NMR titration of human telomeric htel23 G4", "assay_type": "binding", "settings": "1:10 titration", "experimental": "as §1, §2, §3"}, "[5]": {"system": "G4C2 RNA foci in (G4C2)29 overexpressed Neuro2a cells", "experiment": "RNA fluorescent in situ hybridisation, RNA foci numbers", "assay_type": "cell-based", "design": "CAGG (control probe) RNA foci numbers: dose or concentration left out as unconfirmed", "settings": "for G4C2 RNA foci numbers in cells: 1 g/ml treatment for 2 days; for CAGG (control probe) RNA foci numbers: treatment for 2 days", "experimental": "Neuro2a cells planted on coverslips were transfected with pHR-Tre3G-29xGGGGCC-12xMS2 plasmid (#99149), incubated for 2-3 days and then fixed with 4% paraformaldehyde for 15 min at room temperature. Cells were permeabilised with 0.1% TritonX-100 in PBS for 10 min before hybridisation. Target probe ([…]) (SEQ ID NO: 1) with a 5′-Cy3 and control probe ([…]) (SEQ ID NO: 2) with a 5′-Cy5 were added to the hybridisation solution (0.9M NaCl, 0.02M Tris-HCl, 0.01% SDS, 20% formamide). Cells were then incubated in the mixed solution at 46° C. for 3 h. Cells were washed three times in washing solution (0.02M Tris-HCl, 0.001% SDS, 5 mM EDTA) at 48° C., 15 min each time. Then, cells were stained with primary antibodies (Anti-DNA G-quadruplex (G4) antibody (Cat. No. MABE1126) or Anti-hnRNP H antibody (ab10374)) at 1:500 dilution and incubated at 4° C. overnight. In the next day, cells were washed three times with PBS (10 min each time), and then incubated with secondary antibodies (Alexa 488 anti-mouse for G4 or Alex 488 anti-rabbit for hnRNP H) at 1:500 dilution for 1 h at room temperature. Superfluous secondary antibodies were washed away with PBS for three times (10 min each time). Then cells were incubated with DAPI at 1:5000 dilution for 5 mins and washed with PBS once. Finally, cells on slides were air-dried, mounted in Hydromount medium and analysed by confocal microscopy (Leica, SP8).\nFirstly, we confirmed that RNA foci were specifically observed in the (G4C2)29 (SEQ ID NO: 6) overexpressed Neuro2a cells (FIG. 8C)."}, "[6]": {"system": "DNA G-quadruplex formed by chicken DNA replication origin", "experiment": "1D 1H-NMR titration of chicken DNA G-quadruplex", "assay_type": "binding", "settings": "1:3 titration", "experimental": "as §1, §2, §3"}, "[7]": {"system": "Neuro2a cells", "experiment": "Permeability on live cells (cell lysates analysed by UPLC-MS)", "assay_type": "in vitro ADME", "settings": "10, 20 μg/ml; 24 h, 48 h; UPLC-MS of lysates", "experimental": "(§4) In addition, we also tested the permeability on live cells. Neuro2a cells treated with cA at different concentrations (10 μg/ml, 20 μg/ml) for different incubation time (24 h, 48 h) were lysed. Supernatants of cell lysates were collected and analyzed by UPLC-MS. Meanwhile, cell media from different treatment groups were used as control. […] In contrast, the intensity of cA signal was the same in the three corresponding cell media groups (FIG. 25, 4-6)."}, "[8]": {"experiment": "Parallel artificial membrane permeability assay (PAMPA)", "assay_type": "in vitro ADME", "settings": "PAMPA", "experimental": "500 μL of 500 μM test compound and 200 μM Equilibrium Standards for each test compound were prepared. 5 μL DMSO plus 245 μL PBS served as blank control. Firstly, 300 μL PBS was added to each well in the acceptor plate. With the donor plate in its tray, 5 μL 4% Lecithin in Dodecane was added directly to the well membranes of the donor plate. 200 μL of each 500 μM test compound was added to duplicate wells of the donor plate. The donor plate was carefully placed into the acceptor plate wells and incubated at 37° C. for 18 hours. Then the liquid in acceptor plate wells was collected as Acceptor Solution for analysis. Absorbance spectrum from 200 nm to 500 nm in 10 nm intervals was read to determine the peak absorbance of test compounds and blank control.\nas §4"}}, "data": [{"compound": "CC(=O)Cc1cc2c(c(O)c1C(=O)O)-c1c(c(O)c3oc4c(O[C@@H]5OC(C(=O)O)=C[C@H](O)[C@H]5O)cccc4c(=O)c3c1O)CC2", "note": "[cA, chrexanthomycin A]", "values": [{"measurement": "binding to RNA (G4C2)2 G4 by NMR titration", "setting": "[1]", "result": "Chemical shift changes were observed"}, {"measurement": "binding to htel21_T18 G4 by NMR titration", "setting": "[2]", "result": "no obvious chemical shift changes"}, {"measurement": "binding to DNA (G4C2)2 G4 by NMR titration", "setting": "[3]", "result": "neither with 1:1 (light brown), 1:5 (blue) nor 1:10 (pink) titration of cA made significant chemical shift changes"}, {"measurement": "binding to htel23 G4 by NMR titration", "setting": "[4]", "result": "no obvious chemical shift changes"}, {"measurement": "G4C2 RNA foci numbers in cells", "setting": "[5]", "result": "significantly reduced"}, {"measurement": "CAGG (control probe) RNA foci numbers", "setting": "[5]", "result": "seldomly changed"}, {"measurement": "binding to chicken DNA G-quadruplex by NMR titration", "setting": "[6]", "result": "did not show binding"}, {"measurement": "entry into live cells", "setting": "[7]", "result": "could penetrate cell membrane and enter into cells"}]}, {"compound": "CC(=O)Cc1cc2c(c(O)c1C(=O)O)-c1c(c(O)c3oc4c(O[C@@H]5O[C@H](C(=O)O)[C@@H](O)[C@H](O)[C@H]5O)cccc4c(=O)c3c1O)CC2", "note": "[cC, chrexanthomycin C]", "values": [{"measurement": "permeability (PAMPA)", "setting": "[8]", "result": "good permeability"}, {"measurement": "G4C2 RNA foci numbers in cells", "setting": "[5]", "result": "significantly reduced"}, {"measurement": "CAGG (control probe) RNA foci numbers", "setting": "[5]", "result": "seldomly changed"}]}]}
